Measurements published in PMC11962395 (Molecular Cancer Therapeutics, 2024).

How the values were obtained:
AR = AR degradation in CRBN-KO LNCaP and 22Rv1 cells with dox-inducible CRBN; assay type: cell-based
[1] = tested on: nearly 4,000 detectable proteins in VCaP cells; experiment: Proteomic screen in VCaP cells; assay type: cell-based, human; details: 10 nmol/L, 8 hours, filter >2× degradation, P <0.05
[2] = molecular target: G1–S phase transition 1 protein (Homo sapiens, UniProt P15170); experiment: Neomorphic substrate degradation in Ramos cells: GSPT1; assay type: cell-based; details: increasing concentrations, 24 hours
Chain of G1–S phase transition 1 protein (Q16531 whole entry): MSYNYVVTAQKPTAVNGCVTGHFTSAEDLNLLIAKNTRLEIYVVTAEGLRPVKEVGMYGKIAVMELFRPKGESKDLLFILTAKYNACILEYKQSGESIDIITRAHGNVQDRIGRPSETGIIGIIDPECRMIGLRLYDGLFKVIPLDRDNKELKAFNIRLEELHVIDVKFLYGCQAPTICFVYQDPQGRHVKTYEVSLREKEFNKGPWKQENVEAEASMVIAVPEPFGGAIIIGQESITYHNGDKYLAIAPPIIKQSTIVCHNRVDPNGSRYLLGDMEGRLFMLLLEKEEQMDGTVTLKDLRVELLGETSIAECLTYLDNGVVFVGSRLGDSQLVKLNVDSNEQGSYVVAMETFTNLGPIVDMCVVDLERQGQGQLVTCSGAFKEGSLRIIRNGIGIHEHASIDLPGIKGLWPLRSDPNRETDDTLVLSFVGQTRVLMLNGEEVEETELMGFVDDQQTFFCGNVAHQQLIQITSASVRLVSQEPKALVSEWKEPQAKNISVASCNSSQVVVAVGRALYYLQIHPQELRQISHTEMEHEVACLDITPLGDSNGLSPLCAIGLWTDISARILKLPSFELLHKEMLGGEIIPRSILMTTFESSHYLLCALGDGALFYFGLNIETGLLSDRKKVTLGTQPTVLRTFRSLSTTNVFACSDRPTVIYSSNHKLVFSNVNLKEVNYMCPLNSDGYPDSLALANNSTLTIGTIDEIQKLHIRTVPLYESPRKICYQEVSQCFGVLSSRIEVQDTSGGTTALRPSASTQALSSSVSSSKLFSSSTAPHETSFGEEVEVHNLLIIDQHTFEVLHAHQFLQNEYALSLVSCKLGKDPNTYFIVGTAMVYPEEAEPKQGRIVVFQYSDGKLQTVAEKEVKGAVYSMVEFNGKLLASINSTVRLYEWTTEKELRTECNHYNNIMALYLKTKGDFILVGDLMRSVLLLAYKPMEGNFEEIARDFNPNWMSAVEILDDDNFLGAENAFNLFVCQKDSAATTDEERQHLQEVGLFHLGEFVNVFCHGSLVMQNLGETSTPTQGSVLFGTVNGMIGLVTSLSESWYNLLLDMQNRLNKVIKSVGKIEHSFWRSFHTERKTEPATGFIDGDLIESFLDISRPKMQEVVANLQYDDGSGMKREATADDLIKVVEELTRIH
Chain of G1–S phase transition 1 protein (Q96SW2 whole entry, further chain): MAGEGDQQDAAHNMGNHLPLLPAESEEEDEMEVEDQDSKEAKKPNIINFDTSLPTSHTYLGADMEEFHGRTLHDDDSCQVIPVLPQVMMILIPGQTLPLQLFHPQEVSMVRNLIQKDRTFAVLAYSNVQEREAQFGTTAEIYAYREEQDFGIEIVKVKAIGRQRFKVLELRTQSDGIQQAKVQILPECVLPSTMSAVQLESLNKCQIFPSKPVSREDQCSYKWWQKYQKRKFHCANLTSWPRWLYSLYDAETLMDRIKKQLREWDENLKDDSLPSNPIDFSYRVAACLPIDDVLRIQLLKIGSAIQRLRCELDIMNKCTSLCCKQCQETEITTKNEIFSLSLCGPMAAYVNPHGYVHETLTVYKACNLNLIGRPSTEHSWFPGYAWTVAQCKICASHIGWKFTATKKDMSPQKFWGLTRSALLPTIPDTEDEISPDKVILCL
Chain of G1–S phase transition 1 protein (P15170 whole entry): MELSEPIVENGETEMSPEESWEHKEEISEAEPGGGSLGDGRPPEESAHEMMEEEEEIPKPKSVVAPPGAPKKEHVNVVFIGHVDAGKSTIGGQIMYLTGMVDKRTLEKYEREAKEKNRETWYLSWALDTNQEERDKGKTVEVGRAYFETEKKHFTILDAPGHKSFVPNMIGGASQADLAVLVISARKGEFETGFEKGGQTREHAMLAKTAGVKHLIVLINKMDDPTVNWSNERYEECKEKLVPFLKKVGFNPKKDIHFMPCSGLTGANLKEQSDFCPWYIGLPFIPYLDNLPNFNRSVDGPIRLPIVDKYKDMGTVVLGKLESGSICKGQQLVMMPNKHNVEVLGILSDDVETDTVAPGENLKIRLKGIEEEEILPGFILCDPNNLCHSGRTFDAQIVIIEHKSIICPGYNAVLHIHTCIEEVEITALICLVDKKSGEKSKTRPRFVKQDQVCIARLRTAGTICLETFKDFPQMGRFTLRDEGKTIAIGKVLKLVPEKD

IKZF3 (Aiolos) = IKZF3 (Aiolos) (Homo sapiens, UniProt Q9UKT9); experiment: Neomorphic substrate degradation in Ramos cells: IKZF3; assay type: cell-based; details: increasing concentrations, 24 hours
Chain of IKZF3 (Aiolos) (Q96SW2 whole entry partner): as the sequence (Q96SW2 whole entry, further chain) above
Chain of IKZF3 (Aiolos) (Q16531 whole entry partner): as the sequence (Q16531 whole entry) above
Chain of IKZF3 (Aiolos) (Q9UKT9 whole entry): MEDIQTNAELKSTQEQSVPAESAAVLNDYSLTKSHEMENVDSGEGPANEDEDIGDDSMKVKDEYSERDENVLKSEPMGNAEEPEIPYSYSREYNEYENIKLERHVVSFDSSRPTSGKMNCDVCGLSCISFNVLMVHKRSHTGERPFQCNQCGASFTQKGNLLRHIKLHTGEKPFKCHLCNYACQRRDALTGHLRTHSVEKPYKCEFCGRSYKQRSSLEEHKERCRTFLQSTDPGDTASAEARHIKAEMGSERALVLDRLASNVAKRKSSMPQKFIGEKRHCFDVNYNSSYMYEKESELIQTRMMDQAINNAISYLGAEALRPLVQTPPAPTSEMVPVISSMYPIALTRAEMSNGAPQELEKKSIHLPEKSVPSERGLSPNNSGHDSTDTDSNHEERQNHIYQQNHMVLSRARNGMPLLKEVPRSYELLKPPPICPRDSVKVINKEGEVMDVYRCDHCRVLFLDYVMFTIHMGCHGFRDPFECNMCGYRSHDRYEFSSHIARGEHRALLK

IKZF1 (Ikaros) = IKZF1 (Ikaros) (Homo sapiens, UniProt Q13422); experiment: Neomorphic substrate degradation in Ramos cells: IKZF1; assay type: cell-based; details: increasing concentrations, 24 hours
Chain of IKZF1 (Ikaros) (Q96SW2 whole entry partner): as the sequence (Q96SW2 whole entry, further chain) above
Chain of IKZF1 (Ikaros) (Q16531 whole entry partner): as the sequence (Q16531 whole entry) above
Chain of IKZF1 (Ikaros) (Q13422 whole entry): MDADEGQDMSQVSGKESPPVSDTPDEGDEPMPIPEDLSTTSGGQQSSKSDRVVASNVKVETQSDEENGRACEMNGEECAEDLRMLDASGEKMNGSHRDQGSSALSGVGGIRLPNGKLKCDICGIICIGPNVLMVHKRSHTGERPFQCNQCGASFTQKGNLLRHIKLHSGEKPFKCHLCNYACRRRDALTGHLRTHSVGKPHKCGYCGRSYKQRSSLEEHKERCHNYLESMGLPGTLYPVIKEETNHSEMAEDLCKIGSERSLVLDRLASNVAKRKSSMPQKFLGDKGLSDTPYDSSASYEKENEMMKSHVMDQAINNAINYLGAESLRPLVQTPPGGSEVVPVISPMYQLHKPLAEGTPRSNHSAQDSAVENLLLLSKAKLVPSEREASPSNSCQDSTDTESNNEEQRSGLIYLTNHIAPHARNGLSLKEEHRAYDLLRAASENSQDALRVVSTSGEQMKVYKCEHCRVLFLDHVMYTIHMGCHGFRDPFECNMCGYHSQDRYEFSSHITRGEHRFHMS

CK1α = CK1α (Homo sapiens, UniProt P48729+Q96SW2); experiment: Neomorphic substrate degradation in Ramos cells: CK1α; assay type: cell-based
Chain of CK1α (P48729 whole entry): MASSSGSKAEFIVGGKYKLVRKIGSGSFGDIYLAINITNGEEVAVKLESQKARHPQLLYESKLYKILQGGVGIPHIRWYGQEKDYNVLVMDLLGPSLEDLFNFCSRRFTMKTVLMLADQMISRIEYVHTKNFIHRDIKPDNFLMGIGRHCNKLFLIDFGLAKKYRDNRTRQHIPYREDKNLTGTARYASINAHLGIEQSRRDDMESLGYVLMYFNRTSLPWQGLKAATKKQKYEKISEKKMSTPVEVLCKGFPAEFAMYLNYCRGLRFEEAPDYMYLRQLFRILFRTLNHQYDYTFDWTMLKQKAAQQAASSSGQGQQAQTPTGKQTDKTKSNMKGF
Chain of CK1α (Q96SW2 whole entry): as the sequence (Q96SW2 whole entry, further chain) above
Chain of CK1α (Q16531 whole entry partner): as the sequence (Q16531 whole entry) above

SALL4 = SALL4 (Homo sapiens, UniProt Q96SW2+Q9UJQ4); experiment: SALL4 degradation in SK-N-DZ cells; assay type: cell-based
Chain of SALL4 (Q9UJQ4 whole entry): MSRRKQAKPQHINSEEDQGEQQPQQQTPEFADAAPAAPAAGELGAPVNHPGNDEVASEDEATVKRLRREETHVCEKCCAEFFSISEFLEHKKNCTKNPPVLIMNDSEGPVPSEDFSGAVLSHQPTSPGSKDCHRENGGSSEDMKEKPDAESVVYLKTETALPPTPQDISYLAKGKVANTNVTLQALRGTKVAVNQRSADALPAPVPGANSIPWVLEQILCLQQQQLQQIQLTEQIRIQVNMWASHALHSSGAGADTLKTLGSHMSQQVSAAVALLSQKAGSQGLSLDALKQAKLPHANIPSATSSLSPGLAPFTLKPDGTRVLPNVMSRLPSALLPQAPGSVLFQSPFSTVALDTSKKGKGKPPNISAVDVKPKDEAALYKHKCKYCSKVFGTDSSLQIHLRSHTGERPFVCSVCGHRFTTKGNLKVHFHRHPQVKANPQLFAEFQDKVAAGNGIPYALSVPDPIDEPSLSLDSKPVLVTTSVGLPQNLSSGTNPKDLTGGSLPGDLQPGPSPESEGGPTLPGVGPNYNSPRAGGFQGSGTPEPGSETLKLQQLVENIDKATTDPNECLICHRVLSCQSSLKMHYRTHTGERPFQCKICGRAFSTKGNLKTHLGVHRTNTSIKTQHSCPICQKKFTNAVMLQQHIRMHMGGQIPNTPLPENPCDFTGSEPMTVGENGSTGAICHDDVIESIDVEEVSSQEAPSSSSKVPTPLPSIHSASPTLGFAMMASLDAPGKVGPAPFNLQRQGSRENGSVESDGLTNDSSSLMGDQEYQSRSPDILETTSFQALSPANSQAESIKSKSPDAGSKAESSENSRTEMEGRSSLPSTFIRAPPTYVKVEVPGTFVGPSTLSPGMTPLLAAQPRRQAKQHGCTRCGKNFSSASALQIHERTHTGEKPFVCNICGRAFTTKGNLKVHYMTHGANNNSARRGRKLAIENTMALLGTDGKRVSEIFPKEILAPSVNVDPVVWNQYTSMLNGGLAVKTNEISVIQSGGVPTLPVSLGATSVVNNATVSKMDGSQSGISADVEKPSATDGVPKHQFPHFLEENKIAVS
Chain of SALL4 (Q96SW2 whole entry): as the sequence (Q96SW2 whole entry, further chain) above
Chain of SALL4 (Q16531 whole entry partner): as the sequence (Q16531 whole entry) above

[3] = tested on: PSA synthesis in LNCaP/AR cells; experiment: PSA suppression assay in LNCaP/AR cells; assay type: cell-based; details: 48 h, read-out: IC50 (inhibition of PSA synthesis)
VCaP cells = experiment: VCaP cell proliferation assay; assay type: cell-based, human; details: for antiproliferative effect with increasing R1881: 300 nmol/L bavdegalutamide or 1,000 nmol/L enzalutamide, co-treatment with increasing R1881, 5 days
VCaP xenografts = experiment: Tumor growth inhibition, castrated VCaP xenograft model; assay type: in vivo, mice
PSA [4] = experiment: Plasma PSA levels, patient-derived xenograft TM00298; assay type: in vivo, mice; details: 10 mg/kg oral every day for 20 days, 16 hours after last dose
rat prostate tissue = experiment: Rat prostate involution study; assay type: in vivo, rats; details: 15 and 45 mg/kg oral every day for 10 days
[5] = Animal body weights during treatment in prostate cancer mouse models; assay type: in vivo, mice
[6] = tested on: abiraterone-resistant tumors; details: 10 mg/kg oral every day for 19 days, phase III
TMPRSS–ERG = experiment: ERG protein levels in tumors, enzalutamide-resistant VCaP model
[7] = tested on: enzalutamide-resistant VCaP xenograft tumors; experiment: Tumor growth inhibition, enzalutamide-resistant VCaP xenograft model; assay type: in vivo, mice; details: 20 mg/kg oral every day for 28 days
[8] = tested on: human VCaP tumor xenografts; details: intact VCaP xenograft model; cited from earlier work
[9] = tested on: patient-derived xenograft TM00298; details: TM00298 model; cited from earlier work
PSA [10] = details: TM00298 model; cited from earlier work
[11] = vs in vitro functional efficacy of 1 to 30 nmol/L
[12] = enzalutamide-resistant VCaP model

Which “cereblon dependence of AR degradation” value (AR) does the source give for N#Cc1ccc(O[C@H]2CC[C@H](NC(=O)c3ccc(N4CCC(CN5CCN(c6cc7c(cc6F)C(=O)N(C6CCC(=O)NC6=O)C7=O)CC5)CC4)nn3)CC2)cc1Cl (some centres unmarked) [Bavdegalutamide, N-[(1r,4r)-4-(3-chloro-4-cyanophenoxy)cyclohexyl]-6-[4-({4-[2-(2,6-dioxopiperidin-3-yl)-6-fluoro-1,3-dioxo-2,3-dihydro-1H-isoindol-5-yl]piperazin-1-yl}methyl)piperidin-1-yl]pyridazine-3-carboxamide] here?
The value was “cereblon dependent”.

And the “proteins degraded in proteomic screen” value [1]?
Its value is “degradation of only AR”.

And the “G1–S phase transition 1 protein degradation” value [2]?
The value was “did not lead to degradation”.

What about the “IKZF3 (Aiolos) degradation” value (IKZF3 (Aiolos)) of the same compound?
The value was “did not lead to degradation”.

And the “IKZF1 (Ikaros) degradation” value (IKZF1 (Ikaros))?
Its value is “did not lead to degradation”.

What about the CK1α degradation (CK1α; Ramos cells, 300 to 1,000 nmol/L, 24 hours) of the same compound?
Its CK1α degradation is “only modest degradation”.

And the “window between AR and CK1α modulation” value (CK1α; [11])?
The value was ≥ 10 ×.

And the SALL4 degradation (SALL4; SK-N-DZ cells, 1,000 nmol/L, 24 hours)?
The SALL4 degradation was “modestly degraded”.

What about the “window between AR and SALL4 modulation” value (SALL4; [11]) of the same compound?
The value was ≥ 10 ×.

And the IC50 [3]?
Its IC50 is 10 nM.

And the “antiproliferative effect with increasing R1881” value (VCaP cells; charcoal-stripped serum)?
Its value is “antiproliferative effects even in the presence of 1 nmol/L R1881”.

And the IC50 (VCaP cells; Homo sapiens, VCaP, 96 h, read-out: IC50 (inhibition of VCaP cell proliferation))?
The IC50 was 20 nM.

And the TGI (VCaP xenografts; 1 mg/kg oral)?
The TGI was 101%.

And the TGI (VCaP xenografts; 3 mg/kg oral)?
Its TGI is 109%.

What about the “reduction of circulating PSA levels” value (PSA [4]) of the same compound?
The value was 93%.

What about the “rat prostate involution vs enzalutamide 100 mg/kg” value (rat prostate tissue) of the same compound?
Its value is “significantly higher activity than enzalutamide”.

What about the body weights ([5]; castrated VCaP xenograft model) of the same compound?
Its body weights is “Body weights were maintained”.

What about the body weights [5, 12] of the same compound?
The body weights was “Body weights were maintained”.

What about the “volume of abiraterone-resistant tumors” value [6] of the same compound?
The value was “reduced the volume of these abiraterone-resistant tumors”.

What about the “reduction in AR target gene TMPRSS–ERG in tumors” value (TMPRSS–ERG; 3 or 10 mg/kg bavdegalutamide) of the same compound?
The value was “Concomitant reductions”.

Which results are given for CNC(=O)c1ccc(N2C(=S)N(c3ccc(C#N)c(C(F)(F)F)c3)C(=O)C2(C)C)cc1F [Enzalutamide, reference compound]?
antiproliferative effect with increasing R1881 (VCaP cells; charcoal-stripped serum): antiproliferative only at R1881 concentrations <0.1 nmol/L; TGI [7]: TGI was not observed; body weights ([5]; castrated VCaP xenograft model): Body weights were maintained; body weights [5, 12]: Body weights were maintained; effect on tumor growth [8]: little to no effect on tumor growth; effect on tumor growth [9]: without affecting tumor growth; reduction of PSA levels (PSA [10]): approximately 50%; reduction in AR target gene TMPRSS–ERG in tumors (TMPRSS–ERG; 20 mg/kg enzalutamide): this effect did not occur

With C[C@]1(O)CC[C@H]2[C@@H]3CCC4=CC(=O)CCC4=C3C=C[C@@]21C [R1881, reference compound] as the compound, how does the “effect of R1881 alone on proliferation” value (VCaP cells; VCaP cells, charcoal-stripped serum) read?
Its value is “increased the proliferation of VCaP cells”.
